According to article PMC5902495, “Synthesis of Symmetrical Tetrameric Conjugates of the Radiolanthanide Chelator DOTPI for Application in Endoradiotherapy by Means of Click Chemistry” (Frontiers in Chemistry, 2018):

Assays:
[1] = 25°C, I = 0.1 M Me4NCl; ref Lázár et al., [1991]; cited from earlier work
[2] = Stability and protonation constants of Cu^II complexes (spectrophotometry, pH-potentiometry); format: physicochemical; conditions: 25°C, 0.15 M NaCl
Method: Stability constant of Cu(DOTPI) complex was determined by spectrophotometry, studying the Cu^II-DOTPI systems at the absorption band of Cu^II-complex at [H^+] = 0.01– 0.2 M over the wavelength range of 400–800 nm. Concentrations of Cu^II and DOTPI were 1 mM. The H^+ concentration in the samples was adjusted by addition of calculated amounts of 2.0 M HCl, while ionic strength was not constant in these samples. Samples were kept at 25°C for a week. Absorbance values were determined at 9 wavelengths (550, 575, 600, 625, 650, 675, 700, 725, and 750 nm). For calculation of stability and protonation constants of Cu(DOTPI), molar absorptivities of CuCl2, and Cu(HxL) species (wherein x = 0, 1, 2 …5) were determined by recording the spectra of 1.0 × 10^−3, 2.0 × 10^−3 and 3.0 × 10^−3 M solutions of CuCl2 and Cu(DOTPI) in the pH range of 1.7–11.7. The protonation constants of the complexes Cu(DOTPI) and the stability and protonation constants of the dinuclear Cu2(DOTPI) complexes were determined by pH-potentiometric titrations, made at 1:1 and 2:1 metal to ligand concentration ratios.
The stability constant of the Cu(DOTPI(Chx)4) complex has been determined by spectrophotometry with the use of competition reactions between DOTPI(Chx)4 and EDTA for the Cu^2+ at pH = 5.0. The concentration of Cu(EDTA) was 0.2 mM, while that of the DOTPI(Chx)4 was varied between 0.1 and 1.0 mM (5 samples). The samples were kept at 25°C for 2 weeks. The absorbance values and the molar absorptivities of CuCl2, Cu(DOTPI(Chx)4), and Cu(EDTA) have been determined at 11 wavelength (300, 304, 308, 312, 316, 320, 324, 328, 332, 336, and 340 nm) values between 300 and 340 nm. The molar absorptivities of CuCl2, Cu(DOTPI(Chx)4), and Cu(EDTA) were deteremined in 0.05, 0.1, 0.2, 0.3, and 0.4 mM solutions. The absorbance and pH values were determined in the samples after the equilibrium was reached (the time needed to reach the equilibria was determined by spectrophotometry). The spectrophotometric measurements were made with the use of 1.0 cm cells with a Cary 1E spectrophotometer at 25°C. The protonation constants of Cu(DOTPI(Chx)4) complex were determined by pH-potentiometric titrations at 1:1 metal to ligand molar ratio.
For pH measurements and titrations, a Metrohm 785 DMP Titrino titration workstation and a Metrohm-6.0233.100 combined electrode were used. Equilibrium measurements were carried out at a constant ionic strength (0.15 M NaCl) in 6 mL samples at 25°C. The solutions were stirred, and constantly purged with N2. The titrations were performed in a pH range of 1.7–11.7. KH-phthalate (pH = 4.005) and borax (pH = 9.177) buffers were used to calibrate the pH meter. For calculation of [H^+] from measured pH values, the method proposed by Irving et al. was used (Irving et al., [1967]). A 0.01 M HCl solution was titrated with the standardized NaOH solution in the presence of 0.1 M NaCl. Differences between the measured (pHread) and calculated pH (–log[H^+]) values were used to obtain the equilibrium H^+ concentration from the pH values, measured in the titration experiments. For the equilibrium calculations, the stoichiometric water ionic product (pKw) is also needed to calculate [H^+] values in basic conditions. […] For the calculation of the equilibrium constants the program PSEQUAD (Zekany and Nagypal, [1985]) was used.
2. Protonation and complexation equilibria of DOTPI and
The protonation processes of the DOTPI and DOTPI(Chx)4, ligands have been studied by pH-potentiometry. The protonation constants (logKiH) of ligands are defined according to Eq. (1).
The stability and protonation constants of DOTPI and DOTPI(Chx)4 complexes with several metal ions were determined by pH-potentiometric and UV/Vis spectrophotometric, methods.
The stability and protonation constants of the metal complexes formed with the DOTPI and […]

Compound: O=C(O)CCP(=O)(O)CN1CCN(CP(=O)(O)CCC(=O)O)CCN(CP(=O)(O)CCC(=O)O)CCN(CP(=O)(O)CCC(=O)O)CC1 [DOTPI, 1,4,7,10-tetraazacyclododecane-1,4,7,10-tetrakis[methylene(2-carboxyethylphosphinic acid)]]
- logKML, CaL [1]: 12.48
- protonation constant Cu2LH [2]: 5.04 (3)
- protonation constant Cu2LH2 [2]: 4.71 (5)
- protonation constant CuH2L [2]: 5.07 (1)
- protonation constant CuH3L [2]: 4.49 (2)
- protonation constant CuH4L [2]: 4.20 (2)
- protonation constant CuH5L [2]: 2.35 (3)
- protonation constant CuHL [2]: 5.68 (2)
- stability constant of dinuclear complex Cu2L [2]: 4.49 (6)
